Assay results as given in paper PMC12486440, “Design, synthesis, and in silico studies of new benzofuran–pyrazole hybrids as multi-kinase inhibitors with potential antiproliferative activity” (RSC Advances, 2025).

Key:
NCI-H522 = conditions: single dose 10 μM; non-small lung carcinoma
KM12 = conditions: single dose 10 μM; colon cancer
SW-620 = conditions: single dose 10 μM; colon cancer
MCF7 = conditions: single dose 10 μM; breast carcinoma
786–0 = conditions: single dose 10 μM; renal carcinoma
K-562 = conditions: single dose 10 μM; leukemia
PC-3 = conditions: single dose 10 μM; prostate carcinoma
SF-539 = conditions: single dose 10 μM; CNS cancer
SK-OV-3 = conditions: single dose 10 μM; ovarian carcinoma
HOP-62 = conditions: single dose 10 μM; non-small lung carcinoma
MOLT-4 = conditions: single dose 10 μM; leukemia
LOX IMVI = conditions: single dose 10 μM; melanoma
OVCAR-5 = conditions: single dose 10 μM; ovarian carcinoma
HL-60(TB) = conditions: single dose 10 μM; leukemia
SF-295 = conditions: single dose 10 μM; CNS cancer
SN12C = conditions: single dose 10 μM; renal carcinoma
NCI-H23 = conditions: single dose 10 μM; non-small lung carcinoma
EKVX = conditions: single dose 10 μM; non-small lung carcinoma
SK-MEL-2 = conditions: single dose 10 μM; melanoma
SR = conditions: single dose 10 μM; leukemia
UO-31 = conditions: single dose 10 μM; renal carcinoma
A549/ATCC = conditions: single dose 10 μM; non-small lung carcinoma
A498 = conditions: single dose 10 μM; renal carcinoma
HCT-15 = conditions: single dose 10 μM; colon cancer
MDA-MB-468 = conditions: single dose 10 μM; breast carcinoma
T-47D = conditions: single dose 10 μM; breast carcinoma
SNB-75 = conditions: single dose 10 μM; CNS cancer
CAKI-1 = conditions: single dose 10 μM; renal carcinoma
DU-145 = conditions: single dose 10 μM; prostate carcinoma
NCI-H226 = conditions: single dose 10 μM; non-small lung carcinoma
MALME-3M = conditions: single dose 10 μM; melanoma
[1] = system: NCI 60 cancer cell line panel; experiment: NCI 60 full panel summary; conditions: single dose 10 μM; mean over the NCI 60 panel
BT-549 = conditions: single dose 10 μM; breast carcinoma
UACC-257 = conditions: single dose 10 μM; melanoma
SF-268 = conditions: single dose 10 μM; CNS cancer
CCRF-CEM = conditions: single dose 10 μM; leukemia
RPMI-8226 = conditions: single dose 10 μM; leukemia
SK-MEL-5 = conditions: single dose 10 μM; melanoma
SNB-19 = conditions: single dose 10 μM; CNS cancer
HOP-92 = conditions: single dose 10 μM; non-small lung carcinoma
SK-MEL-28 = conditions: single dose 10 μM; melanoma
HT29 = conditions: single dose 10 μM; colon cancer
M14 = conditions: single dose 10 μM; melanoma
UACC-62 = conditions: single dose 10 μM; melanoma
RXF 393 = conditions: single dose 10 μM; renal carcinoma
TK-10 = conditions: single dose 10 μM; renal carcinoma
OVCAR-8 = conditions: single dose 10 μM; ovarian carcinoma
ACHN = conditions: single dose 10 μM; renal carcinoma
MDA-MB-435 = conditions: single dose 10 μM; melanoma
OVCAR-4 = conditions: single dose 10 μM; ovarian carcinoma

| Molecule | GI% (NCI-H522) [%] | GI% (MCF7) [%] | GI% (786–0) [%] | GI% (K-562) [%] | GI% (PC-3) [%] | GI% (SF-539) [%] | GI% (MOLT-4) [%] | GI% (OVCAR-5) [%] | GI% (HL-60(TB)) [%] | GI% (SF-295) [%] | GI% (SN12C) [%] | GI% (EKVX) [%] | GI% (SR) [%] | GI% (UO-31) [%] | GI% (A498) [%] | GI% (HCT-15) [%] | GI% (CAKI-1) [%] | GI% (MALME-3M) [%] | Mean GI% [1] [%] | GI% (SNB-19) [%] | further results |
| --- | --- | --- | --- | --- | --- | --- | --- | --- | --- | --- | --- | --- | --- | --- | --- | --- | --- | --- | --- | --- | --- |
| COc1ccc(C2=NN(C(C)=O)C(c3cn(-c4ccccc4)nc3-c3cc4ccccc4o3)C2)cc1OC (centres unmarked) [4c, 1-(5-(3-(Benzofuran-2-yl)-1-phenyl-1H-pyrazol-4-yl)-3-(3,4-dimethoxyphenyl)-4,5-dihydropyrazol-1-yl)ethanone] | 1.54 | 8.83 | 4.42 | 7.80 | 3.89 | 1.95 | 8.51 | 5.34 | 12.17 | 4.33 | 10.86 | 2.78 | 16.71 | 11.00 | 3.05 | 2.45 | 13.64 | 3.54 | 2.51 | 6.15 | GI% (KM12): 1.20%; GI% (SW-620): 4.67%; GI% (SK-OV-3): 7.21%; GI% (HOP-62): 3.35%; GI% (LOX IMVI): 3.27%; GI% (NCI-H23): 3.23%; GI% (SK-MEL-2): 1.30%; GI% (A549/ATCC): 2.60%; GI% (MDA-MB-468): 8.49%; GI% (T-47D): 5.68%; GI% (SNB-75): 14.70%; GI% (DU-145): 1.59%; GI% (NCI-H226): 1.68%; GI% (BT-549): 3.97%; GI% (UACC-257): 6.12%; GI% (SF-268): 4.67%; GI% (CCRF-CEM): 9.93%; GI% (RPMI-8226): 11.35%; GI% (SK-MEL-5): 5.22% |
| CC(=O)N1N=C(c2nc3ccccc3[nH]2)CC1c1cn(-c2ccccc2)nc1-c1cc2ccccc2o1 (centres unmarked) [4d, 1-(5-(3-(Benzofuran-2-yl)-1-phenyl-1H-pyrazol-4-yl)-3-(1H-benzo[d]imidazol-2-yl)-4,5-dihydropyrazol-1-yl)ethanone] | 1.70 | 5.40 | 4.06 | 2.81 | 5.99 | 0.68 | 5.60 | 6.06 | 5.44 | 9.71 | 6.54 | 5.61 | 18.72 | 13.92 | 5.12 | 1.38 | 7.51 | 5.76 | 1.26 | 4.75 | GI% (HOP-92): 8.82%; GI% (SK-MEL-28): 1.16%; GI% (HT29): 0.62%; GI% (M14): 2.74%; GI% (T-47D): 18.84%; GI% (NCI-H226): 3.03%; GI% (UACC-62): 2.82%; GI% (RXF 393): 2.67%; GI% (BT-549): 9.21%; GI% (UACC-257): 1.22%; GI% (TK-10): 15.06%; GI% (SF-268): 1.38%; GI% (CCRF-CEM): 10.91%; GI% (RPMI-8226): 4.74%; GI% (SK-MEL-5): 0.87% |
| COc1ccc(C2=NNC(c3cn(-c4ccccc4)nc3-c3cc4ccccc4o3)C2)cc1 (centres unmarked) [3b, 3-(Benzofuran-2-yl)-4-(3-(4-methoxyphenyl)-4,5-dihydro-1H-pyrazol-5-yl)-1-phenyl-1H-pyrazole] | 0.82 | 2.03 | – | 7.50 | 12.08 | 4.09 | 8.04 | – | 2.83 | 1.43 | – | 0.52 | 7.24 | 26.14 | 2.47 | 1.12 | 17.83 | 4.88 | 0.8 | 2.46 | GI% (HOP-92): 3.27%; GI% (SK-OV-3): 6.45%; GI% (HOP-62): 4.32%; GI% (OVCAR-8): 1.00%; GI% (M14): 4.94%; GI% (ACHN): 5.79%; GI% (MDA-MB-468): 7.03%; GI% (T-47D): 2.60%; GI% (SNB-75): 0.28%; GI% (NCI-H226): 1.48%; GI% (UACC-62): 8.16%; GI% (BT-549): 4.37%; GI% (TK-10): 3.17%; GI% (CCRF-CEM): 17.25%; GI% (RPMI-8226): 7.55% |
| 3-(5-(Benzofuran-2-yl)-1-phenyl-1H-pyrazol-3-yl)-1-phenylprop-2-en-1-one [2a] | 3.81 | 5.38 | 1.14 | 5.10 | – | 0.23 | 3.22 | 0.37 | 7.64 | 5.84 | 0.82 | 0.89 | 17.52 | 7.39 | 1.16 | – | 15.01 | 1.12 | 0.37 | 4.72 | GI% (KM12): 1.62%; GI% (SW-620): 0.70%; GI% (M14): 0.52%; GI% (MDA-MB-435): 0.51%; GI% (NCI-H23): 1.16%; GI% (A549/ATCC): 4.22%; GI% (OVCAR-4): 1.64%; GI% (MDA-MB-468): 0.19%; GI% (SNB-75): 19.77%; GI% (UACC-62): 2.28%; GI% (UACC-257): 5.50%; GI% (TK-10): 5.20%; GI% (SF-268): 4.98% |
